Measured values reported in patent US20230085307A1, “PYRIDAZINONE COMPOUND AND HERBICIDE” (NISSAN CHEMICAL CORPORATION, priority 2019, published 2023).

Assays:
late watergrass [1] = assay: Test Example 1: herbicidal activity, application before weed generation under submerged conditions (Table 16, symbol A); format: in vivo, late watergrass (Echinochloa oryzicola); conditions: 320 g/ha applied herbicide
How it was run: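 Emulsion formulation, water-diluted to set dose, was put onto the flooded surface (4 cm depth, alluvial soil) the same day weeds were sown and 2.5-leaf rice transplanted. After 3 weeks at 25-30 °C under glass, each species was rated 0 (≤5% kill) to 5 (≥90% kill).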

late watergrass [2] = assay: Test Example 2: herbicidal activity, application during weed generation under submerged conditions (Table 17, symbol A); format: in vivo, late watergrass (Echinochloa oryzicola); conditions: AAH 320 g/ha; application during weed generation, submerged conditions
How it was run: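 In this pot test, flooded alluvial soil (water depth 4 cm) holds all three species sown as a mixture. Once seedlings have one to two leaves, the compound's emulsion, thinned with water to the intended dose, is poured on the water; grading follows after three weeks on the earlier criteria.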

Chinese sprangletop = assay: Test Example 3: herbicidal effect by foliage application, Wagner pot (Table 18, symbol D); format: in vivo, chinese sprangletop (Leptochloa chinensis); conditions: amount of applied herbicide 320 g/ha
How it was run: (§1)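 Plants were sown in alluvial soil held under 0.1–0.5 cm standing water and grown 14 days in a greenhouse at 25–30 °C. An emulsifiable formulation, water-diluted to the set dose, was then sprayed onto the foliage, and effects were scored three weeks later using previously defined criteria.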

rice flat sedge = assay: Test Example 3: herbicidal effect by foliage application, Wagner pot (Table 18, symbol E); format: in vivo, rice flat sedge (Cyperus iria); conditions: amount of applied herbicide 320 g/ha
How it was run: as §1

southern crabgrass = assay: Test Example 4: herbicidal effect by soil treatment (Table 19, symbol F); format: in vivo, southern crabgrass (Digitaria ciliaris); conditions: amount of applied herbicide 320 g/ha
How it was run: (§2)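 Applied as a water-diluted emulsion, the compound was sprayed onto soil covering newly sown seeds. Evaluation came three weeks after application, in a greenhouse held at 25° C. to 30° C.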

wild oat [3] = assay: Test Example 4: herbicidal effect by soil treatment (Table 19, symbol I); format: in vivo, wild oat (Avena fatua); conditions: amount of applied herbicide 320 g/ha
How it was run: as §2

Italian ryegrass [4] = assay: Test Example 4: herbicidal effect by soil treatment (Table 19, symbol K); format: in vivo, Italian ryegrass (Lolium multiflorum); conditions: amount of applied herbicide 320 g/ha
How it was run: as §2

windgrass = assay: Test Example 4: herbicidal effect by soil treatment (Table 19, symbol L); format: in vivo, windgrass (Apera spica-venti); conditions: amount of applied herbicide 320 g/ha
How it was run: as §2

lambsquarters [5] = assay: Test Example 4: herbicidal effect by soil treatment (Table 19, symbol O); format: in vivo, lambsquarters (Chenopodium album); conditions: amount of applied herbicide 320 g/ha
How it was run: as §2

chickweed [6] = assay: Test Example 4: herbicidal effect by soil treatment (Table 19, symbol P); format: in vivo, common chickweed (Stellaria media); conditions: amount of applied herbicide 320 g/ha
How it was run: as §2

barnyard grass = assay: Test Example 5: herbicidal effect by foliage application, plastic box (Table 20, symbol H); format: in vivo, barnyard grass (Echinochloa crus-galli); conditions: foliage application, AAH 320 g/ha, evaluated three weeks after application
How it was run: (§3)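 Sow seeds spot-wise in sterilized diluvial soil; cover with ~1.5 cm soil. Grow 14 days in greenhouse, 25° C. to 30° C. Spray foliage with emulsion diluted to predetermined amount. Rate effect after 3 weeks.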

wild oat [7] = assay: Test Example 5: herbicidal effect by foliage application, plastic box (Table 20, symbol I); format: in vivo, wild oat (Avena fatua); conditions: foliage application, AAH 320 g/ha, evaluated three weeks after application
How it was run: as §3

Italian ryegrass [8] = assay: Test Example 5: herbicidal effect by foliage application, plastic box (Table 20, symbol K); format: in vivo, Italian ryegrass (Lolium multiflorum); conditions: foliage application, AAH 320 g/ha, evaluated three weeks after application
How it was run: as §3

redroot pigweed = assay: Test Example 5: herbicidal effect by foliage application, plastic box (Table 20, symbol N); format: in vivo, redroot pigweed (Amaranthus retroflexus); conditions: foliage application, AAH 320 g/ha, evaluated three weeks after application
How it was run: as §3

lambsquarters [9] = assay: Test Example 5: herbicidal effect by foliage application, plastic box (Table 20, symbol O); format: in vivo, lambsquarters (Chenopodium album); conditions: foliage application, AAH 320 g/ha, evaluated three weeks after application
How it was run: as §3

chickweed [10] = assay: Test Example 5: herbicidal effect by foliage application, plastic box (Table 20, symbol P); format: in vivo, common chickweed (Stellaria media); conditions: foliage application, AAH 320 g/ha, evaluated three weeks after application
How it was run: as §3

Compound	Herbicidal effect on A: late watergrass (grade 0-5) (late watergrass [1])	herbicidal effect rating, A: late watergrass (late watergrass [2])	herbicidal effect on D: Chinese sprangletop (Chinese sprangletop)	herbicidal effect on E: rice flat sedge (rice flat sedge)	herbicidal effect on F: southern crabgrass (southern crabgrass)	herbicidal effect on I: wild oat (wild oat [3])	herbicidal effect on K: Italian ryegrass (Italian ryegrass [4])	herbicidal effect on L: windgrass (windgrass)	herbicidal effect on O: lambsquarters (lambsquarters [5])	herbicidal effect on P: chickweed (chickweed [6])	H: barnyard grass, herbicidal effect (criteria 0-5) (barnyard grass)	I: wild oat, herbicidal effect (criteria 0-5) (wild oat [7])	K: Italian ryegrass, herbicidal effect (criteria 0-5) (Italian ryegrass [8])	N: redroot pigweed, herbicidal effect (criteria 0-5) (redroot pigweed)	O: lambsquarters, herbicidal effect (criteria 0-5) (lambsquarters [9])	P: chickweed, herbicidal effect (criteria 0-5) (chickweed [10])
Cc1ccccc1C(=O)Oc1c(C)nn(C)c(=O)c1-c1c(-c2ccc(OC(F)F)cc2)sc2ccc(F)cc12 [2-285]	5 (Herbicidal rate of 90% or more (almost completely withered))	3 (Herbicidal rate of 40% or more and less than 70%)	3 (Herbicidal rate of 40% or more and less than 70%)	5 (Herbicidal rate of 90% or more (almost completely withered))	0 (Herbicidal rate of 5% or less (almost no effect))	0 (Herbicidal rate of 5% or less (almost no effect))	2 (Herbicidal rate of 20% or more and less than 40%)	0 (Herbicidal rate of 5% or less (almost no effect))	0 (Herbicidal rate of 5% or less (almost no effect))	3 (Herbicidal rate of 40% or more and less than 70%)	4 (Herbicidal rate of 70% or more and less than 90%)	1 (Herbicidal rate of 5% or more and less than 20%)	4 (Herbicidal rate of 70% or more and less than 90%)	5 (Herbicidal rate of 90% or more (almost completely withered))	5 (Herbicidal rate of 90% or more (almost completely withered))	5 (Herbicidal rate of 90% or more (almost completely withered))
C=CCOC(=O)Oc1c(C)nn(C)c(=O)c1-c1c(-c2ccc(OC(F)F)cc2)sc2ccc(F)cc12 [2-294]	5 (Herbicidal rate of 90% or more (almost completely withered))	3 (Herbicidal rate of 40% or more and less than 70%)	4 (Herbicidal rate of 70% or more and less than 90%)	5 (Herbicidal rate of 90% or more (almost completely withered))	5 (Herbicidal rate of 90% or more (almost completely withered))	1 (Herbicidal rate of 5% or more and less than 20%)	5 (Herbicidal rate of 90% or more (almost completely withered))	4 (Herbicidal rate of 70% or more and less than 90%)	5 (Herbicidal rate of 90% or more (almost completely withered))	5 (Herbicidal rate of 90% or more (almost completely withered))	5 (Herbicidal rate of 90% or more (almost completely withered))	3 (Herbicidal rate of 40% or more and less than 70%)	5 (Herbicidal rate of 90% or more (almost completely withered))	5 (Herbicidal rate of 90% or more (almost completely withered))	5 (Herbicidal rate of 90% or more (almost completely withered))	5 (Herbicidal rate of 90% or more (almost completely withered))
COc1cccc(S(=O)(=O)Oc2c(C)nn(C)c(=O)c2-c2c(-c3ccc(OC(F)F)cc3)sc3ccc(F)cc23)c1 [2-313]	2 (Herbicidal rate of 20% or more and less than 40%)	3 (Herbicidal rate of 40% or more and less than 70%)	2 (Herbicidal rate of 20% or more and less than 40%)	5 (Herbicidal rate of 90% or more (almost completely withered))	0 (Herbicidal rate of 5% or less (almost no effect))	0 (Herbicidal rate of 5% or less (almost no effect))	5 (Herbicidal rate of 90% or more (almost completely withered))	0 (Herbicidal rate of 5% or less (almost no effect))	3 (Herbicidal rate of 40% or more and less than 70%)	5 (Herbicidal rate of 90% or more (almost completely withered))	5 (Herbicidal rate of 90% or more (almost completely withered))	2 (Herbicidal rate of 20% or more and less than 40%)	5 (Herbicidal rate of 90% or more (almost completely withered))	5 (Herbicidal rate of 90% or more (almost completely withered))	5 (Herbicidal rate of 90% or more (almost completely withered))	5 (Herbicidal rate of 90% or more (almost completely withered))
C=CCSCc1ccc(-c2sc3ccc(F)cc3c2-c2c(O)c(C)nn(C)c2=O)cc1 [2-323]	4 (Herbicidal rate of 70% or more and less than 90%)	3 (Herbicidal rate of 40% or more and less than 70%)	2 (Herbicidal rate of 20% or more and less than 40%)	3 (Herbicidal rate of 40% or more and less than 70%)	1 (Herbicidal rate of 5% or more and less than 20%)	0 (Herbicidal rate of 5% or less (almost no effect))	4 (Herbicidal rate of 70% or more and less than 90%)	0 (Herbicidal rate of 5% or less (almost no effect))	3 (Herbicidal rate of 40% or more and less than 70%)	1 (Herbicidal rate of 5% or more and less than 20%)	4 (Herbicidal rate of 70% or more and less than 90%)	3 (Herbicidal rate of 40% or more and less than 70%)	4 (Herbicidal rate of 70% or more and less than 90%)	5 (Herbicidal rate of 90% or more (almost completely withered))	5 (Herbicidal rate of 90% or more (almost completely withered))	5 (Herbicidal rate of 90% or more (almost completely withered))
C#CCSCc1ccc(-c2sc3ccc(F)cc3c2-c2c(O)c(C)nn(C)c2=O)cc1 [2-325]	3 (Herbicidal rate of 40% or more and less than 70%)	2 (Herbicidal rate of 20% or more and less than 40%)	3 (Herbicidal rate of 40% or more and less than 70%)	5 (Herbicidal rate of 90% or more (almost completely withered))	0 (Herbicidal rate of 5% or less (almost no effect))	0 (Herbicidal rate of 5% or less (almost no effect))	4 (Herbicidal rate of 70% or more and less than 90%)	0 (Herbicidal rate of 5% or less (almost no effect))	4 (Herbicidal rate of 70% or more and less than 90%)	0 (Herbicidal rate of 5% or less (almost no effect))	5 (Herbicidal rate of 90% or more (almost completely withered))	4 (Herbicidal rate of 70% or more and less than 90%)	4 (Herbicidal rate of 70% or more and less than 90%)	5 (Herbicidal rate of 90% or more (almost completely withered))	5 (Herbicidal rate of 90% or more (almost completely withered))	5 (Herbicidal rate of 90% or more (almost completely withered))
